Data taken from patent publication EP4775580A1, “COMPOUND, PHARMACEUTICAL COMPOSITION COMPRISING SAME, AND USE THEREOF” (Euregen Biopharma Co., Ltd., priority 2023, dated 2025).
Like-named read-outs stand apart in the source and are kept apart here.

Legend:
[1] = Pharmacokinetics in rats after single IV and PO administration (LC-MS/MS); assay type: in vivo, male SD rats; conditions: SD rats, comparative compounds; for PO F: PO 10 mg/kg vs IV 1 mg/kg according to Table 3; for AUC(0-t) / clearance / Cmax / Vd / half-life: male, rat, plasma; for clearance: read-out: IV CL; for Vd: read-out: IV Vss
Experimental: • 1. Objective: This study aimed to characterize the pharmacokinetic properties of selected compounds from the examples of the present invention in SD rats following single intravenous (IV) injection and oral (PO) administration using LC-MS/MS methodology. • 2. Experimental Materials: Test compounds were prepared according to the examples of the present invention; male SD rats were obtained from the Laboratory Animal Department of Shanghai Institute of Planned Parenthood Research (License No. SCXK(Shanghai)2018-0006) or Shanghai Jihui Laboratory Animal Breeding Co., Ltd. (License No. SCXK(Shanghai)2022-0009). • 3. Experimental Methods: Preparation of 0.5% methylcellulose: 5 g of methylcellulose was weighed and dissolved in 1000 mL of purified water. Preparation of 0.5% methylcellulose (pH = 5.03): 5 g of methylcellulose was weighed and dissolved in 1000 mL of purified water, and the pH was adjusted to 5.03 with 100 mM citric acid.
Preparation of oral formulations: The required amount of test compound was weighed and dissolved in 0.5% methylcellulose solution or 0.5% methylcellulose (pH = 5.03) to obtain a suspension or solution at 1 or 3 mg/mL.
Preparation of intravenous injection formulations: The required amount of test compound (EB229, EB300, EB341, EB342) was weighed and dissolved in 0.5 mL dimethyl sulfoxide to prepare a 4 mg/mL solution. To 0.25 mL of this solution, 0.5 mL of polyethylene glycol 15-hydroxystearate (Solutol) and 4.25 mL of normal saline were added to obtain a 0.2 mg/mL solution. For EB834, 6 mg was weighed and dissolved in 0.1 mL dimethyl sulfoxide, followed by addition of 0.2 mL polyethylene glycol 15-hydroxystearate (Solutol) and 1.7 mL normal saline to obtain a 3 mg/mL solution.
Dosing: Male SD rats were fasted overnight prior to oral (PO) administration; fasting was not required for the single intravenous (IV) injection group. Food was provided 4 hours post-dosing.
Sample Collection: Blood was collected from the jugular vein or other suitable veins, with 0.2 mL collected at each time point. Samples were placed in tubes containing dipotassium ethylenediaminetetraacetate and kept on ice prior to centrifugation. Within 1 hour of blood collection, samples were centrifuged at 6800 × g for 6 minutes at 2-8°C and stored at -80°C.

[2] = system: MV-4-11 cells; test: Antiproliferative activity against MV-4-11 cells (CTG method, 72 h); assay type: cell-based; conditions: Homo sapiens, MV4-11, 72 hours incubation, CellTiter-Glo
Description: • 1. Experimental Principle: MV-4-11 is a human leukemia cell line harboring MLL translocation and expressing the MLL fusion protein MLL-AF4. […] Experimental Materials: CellTiter-Glo was purchased from Promega (Cat. #G7571); IMDM medium was purchased from Gibco (Cat. #12440061); fetal bovine serum was purchased from Excell (Cat. #FND500); dimethyl sulfoxide (DMSO) was purchased from Sigma (Cat. #D2650); 384-well cell culture plates were purchased from Corning (Cat. #3756); automated cell counter was obtained from Life Technologies (Model: Countess II); microplate reader was obtained from PerkinElmer (Model: EnVision Multilabel Reader). • 3. Experimental Methods: Cells in logarithmic growth phase were resuspended in growth medium (IMDM + 10% FBS) and diluted to the target density (50,000/mL). The cell suspension was seeded into 384-well plates at 50 µL per well and incubated overnight at 37°C in a 5% CO2 incubator.
Test compounds were dissolved in DMSO to prepare 10 mM stock solutions. The stock solutions were first diluted to 2 mmol/L with DMSO, followed by 3-fold serial dilutions to generate 10 concentrations. From each concentration, 5.5 µL was diluted with 94.5 µL growth medium. The diluted solutions were then added to the 384-well plates containing seeded cells at 5 µL per well.
Cells treated with test compounds were incubated at 37°C in a 5% CO2 incubator for 72 hours. The 384-well plates were equilibrated at room temperature, and 15 µL of CellTiter-Glo reagent was added to each well. The plates were mixed on a vortex mixer for 2 minutes and incubated at room temperature for 60 minutes. Luminescence values were read using the EnVision Multilabel Reader, and IC50 values were calculated using GraphPad Prism 5.0 software.

[3] = system: MV-4-11 cells; test: Antiproliferative activity, CellTiter-Glo, 7 days (Test Example 2), MV-4-11; assay type: cell-based; conditions: Homo sapiens, MV4-11, 168 h, 7 days incubation
Description: (§1) [0134] 1. Experimental Principle: MV-4-11, Molm-13, and OCI-AML-3 cells are human hematologic tumor cell lines harboring the Menin-MLL fusion. HL-60 is a wild-type human hematologic tumor cell line without Menin-MLL fusion. […] 2. Experimental Materials: MV-4-11, Molm-13, OCI-AML-3, and HL-60 cells were all purchased from Cobioer; CellTiter-Glo® was purchased from Promega (Cat. #G7571); RPMI-1640 was purchased from Viva Cell (Cat. #C3010-0500); IMDM was purchased from Viva Cell (Cat. #C3040-0500); fetal bovine serum (FBS) was purchased from Biosera (Cat. #FB-1058/500); penicillin-streptomycin was purchased from BasalMedia (Cat. #S110JV); 0.25% Trypsin-EDTA was purchased from BasalMedia (Cat. #S310KJ); dimethyl sulfoxide (DMSO) was purchased from Sinopharm (Cat. #30072418); 96-well plates were purchased from Corning (Cat. #3610); incubator was obtained from PHCbi (Model: MCO-18AC); inverted microscope was obtained from Mingmei (Cat. #MI52-0); automated cell counter was obtained from BodBoge (Model: JSY-SC-031N); microplate reader was obtained from PerkinElmer (Model: Envision); data processing software: GraphPad Prism 8.0. 3. Experimental Methods: Four cell lines in logarithmic growth phase were resuspended in their respective growth media (MV-4-11: IMDM + 20% FBS; Molm-13: RPMI-1640 + 20% FBS; OCI-AML-3: RPMI-1640 + 20% FBS; HL-60: RPMI-1640 + 10% FBS) and diluted to target densities (12,500, 6,250, 12,500, and 12,500/mL, respectively). The cell suspensions were seeded into 96-well plates at 80 µL per well and incubated overnight at 37°C in a 5% CO2 incubator. Culture medium served as the background control. Test compounds were dissolved in DMSO to prepare 10 mmol/L stock solutions. The stock solutions were first diluted to 2 mmol/L with DMSO, followed by 4-fold serial dilutions to generate 10 concentrations. From each concentration, 2 µL was diluted with 78 µL growth medium. […] After incubation at room temperature for 10 minutes, luminescence values were read using the EnVision microplate reader, and IC50 values were calculated using GraphPad Prism 8.0 software. […]

[4] = system: HL-60 cells; test: Antiproliferative activity, CellTiter-Glo, 7 days (Test Example 2), HL-60; assay type: cell-based; conditions: Homo sapiens, 168 h, HL-60 cells (no Menin-MLL fusion), 7 days incubation
Description: as §1

[5] = IV, dose 1 mg/kg according to Table 3, read-out: IV AUC(0-t)
[6] = IV, dose 1 mg/kg according to Table 3
[7] = IV, dose 1 mg/kg according to Table 3, read-out: IV Cmax
[8] = IV, dose 1 mg/kg according to Table 3, read-out: IV t1/2 (converted)
[9] = PO, dose 10 mg/kg in 0.5% MC according to Table 3, read-out: PO AUC(0-t)
[10] = PO, dose 10 mg/kg in 0.5% MC according to Table 3, read-out: PO Cmax
[11] = PO, dose 10 mg/kg in 0.5% MC according to Table 3, read-out: PO t1/2 (converted)

## CCN(C(=O)c1cc(F)ccc1N1CCN(C2CCN(Cc3ccc4[nH]c(C#N)cc4c3C)CC2)c2ncncc21)C(C)C [Comparative Comp. 7]
[1]
  PO F: 3.7%
[1]; [5]
  AUC(0-t): 264 ng·h/mL
[1]; [6]
  clearance: 62.1 mL/min/kg
  Vd: 6.62 L/kg
[1]; [7]
  Cmax: 152 ng/mL
[1]; [8]
  half-life: 1.55 h
[1]; [9]
  AUC(0-t): 119 ng·h/mL
[1]; [10]
  Cmax: 27 ng/mL
[1]; [11]
  half-life: 2.29 h

## CCN(C(=O)c1cc(F)ccc1N1CCN(C2CCN(Cc3ccc4c(cc(C#N)n4C[C@@H]4CCNC4)c3C)CC2)c2ncncc21)C(C)C [Comparative Comp. 8]
[1]
  PO F: 13.85%
[1]; [5]
  AUC(0-t): 85.7 ng·h/mL
[1]; [6]
  clearance: 185 mL/min/kg
  Vd: 9.61 L/kg
[1]; [7]
  Cmax: 271 ng/mL
[1]; [8]
  half-life: 2.06 h
[1]; [9]
  AUC(0-t): 119 ng·h/mL
[1]; [10]
  Cmax: 41.9 ng/mL
[1]; [11]
  half-life: 1.8 h

## CCN(C(=O)c1cc(F)ccc1N1CCN(C2CCN(Cc3ccc4c(cc(C#N)n4CC4CNC4)c3C)CC2)c2ncncc21)C(C)C [Comparative Comp. 9]
[1]
  PO F: 13.50%
[1]; [5]
  AUC(0-t): 169 ng·h/mL
[1]; [6]
  clearance: 92.4 mL/min/kg
  Vd: 30.6 L/kg
[1]; [7]
  Cmax: 376 ng/mL
[1]; [8]
  half-life: 5.98 h
[1]; [9]
  AUC(0-t): 228 ng·h/mL
[1]; [10]
  Cmax: 101 ng/mL
[1]; [11]
  half-life: 5.12 h

## CCN(C(=O)c1cc(F)ccc1N1CCN(C2CCN(Cc3ccc4c(cc(C#N)n4CC4COC4)c3C)CC2)c2ncncc21)C(C)C [Comparative Comp. 10]
[1]
  PO F: 49.68%
[1]; [5]
  AUC(0-t): 16.9 ng·h/mL
[1]; [6]
  clearance: 947 mL/min/kg
  Vd: 59.4 L/kg
[1]; [7]
  Cmax: 16.2 ng/mL
[1]; [8]
  half-life: 0.82 h
[1]; [9]
  AUC(0-t): 83.8 ng·h/mL
[1]; [10]
  Cmax: 33.3 ng/mL
[1]; [11]
  half-life: 1.26 h

## CCN(C(=O)c1cc(F)ccc1N1CCN(C2CCN(C[C@H]3CC[C@H](NS(C)(=O)=O)CC3)C2)c2ncncc21)C(C)C (stereo partly shown) [Comparative Compound 1]
[2]
  IC50: 293 nM

## CCN(C(=O)c1cc(F)ccc1N1CCN(C2CCN(Cc3ccc4[nH]c(C#N)cc4c3C)C2)c2ncncc21)C(C)C (stereo not shown) [Comparative Compound 2]
[2]
  IC50: 800 nM

## CNc1nc(NC2CCN(Cc3ccc4c(cc(C#N)n4C[C@H](C)N4CCN(S(C)(=O)=O)CC4)c3C)CC2)c2cc(CC(F)(F)F)sc2n1 [KO539]
[3]
  IC50: 14.4 nM
[4]
  IC50: 2050 nM
